Laboratory results reported in ChEMBL document CHEMBL1201862, “PubChem BioAssay data set” (2004).
Calls of active or inactive are those of the source.

What was measured:
Coagulation factor XII = target: T1, Coagulation factor XII (Homo sapiens, UniProt P00748); experiment: Factor XIIa Dose Response Confirmation from Single Well HTS. [Related pubchem assays (depositor defined):AID701]; type: functional
T1 sequence (P00748 whole entry): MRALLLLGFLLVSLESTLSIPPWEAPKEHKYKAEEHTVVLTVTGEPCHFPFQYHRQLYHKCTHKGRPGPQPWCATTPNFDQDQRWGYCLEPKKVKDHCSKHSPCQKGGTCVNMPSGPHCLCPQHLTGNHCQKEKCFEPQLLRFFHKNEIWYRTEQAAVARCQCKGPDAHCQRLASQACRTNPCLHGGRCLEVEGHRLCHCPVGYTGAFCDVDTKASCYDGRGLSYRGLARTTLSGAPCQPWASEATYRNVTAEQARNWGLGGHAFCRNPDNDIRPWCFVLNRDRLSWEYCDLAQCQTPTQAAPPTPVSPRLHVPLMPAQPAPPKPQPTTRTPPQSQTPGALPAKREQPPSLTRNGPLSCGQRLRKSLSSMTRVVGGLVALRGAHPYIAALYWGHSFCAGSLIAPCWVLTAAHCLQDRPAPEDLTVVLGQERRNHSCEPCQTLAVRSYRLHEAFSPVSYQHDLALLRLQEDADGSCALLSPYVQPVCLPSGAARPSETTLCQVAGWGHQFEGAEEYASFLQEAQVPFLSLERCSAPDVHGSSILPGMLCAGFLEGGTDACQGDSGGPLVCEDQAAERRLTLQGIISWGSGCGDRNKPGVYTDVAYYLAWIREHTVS

[1] = target: Dual specificity protein phosphatase 3 (Homo sapiens, UniProt P51452); experiment: SAR VHR1 Fluorescent Assay for In Vitro dose response studies Set 2. [Related pubchem assays (depositor defined):AID1654, AID1661, AID1878]; type: functional
Sequence of Dual specificity protein phosphatase 3 (P51452 whole entry): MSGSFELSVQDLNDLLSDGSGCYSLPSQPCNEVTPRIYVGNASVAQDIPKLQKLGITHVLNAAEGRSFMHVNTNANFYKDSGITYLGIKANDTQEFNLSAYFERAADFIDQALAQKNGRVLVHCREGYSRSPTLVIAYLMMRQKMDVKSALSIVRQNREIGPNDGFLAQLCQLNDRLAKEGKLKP

[2] = target: T2, Tyrosine-protein phosphatase non-receptor type 7 (Homo sapiens, UniProt P35236); experiment: SAR analysis of chemical inhibitors of HePTP using a Fluorescent assay - Set 2. [Related pubchem assays (depositor defined):AID1059, AID1077, AID1661, AID2085, AID521]; type: functional
T2 sequence (P35236 whole entry): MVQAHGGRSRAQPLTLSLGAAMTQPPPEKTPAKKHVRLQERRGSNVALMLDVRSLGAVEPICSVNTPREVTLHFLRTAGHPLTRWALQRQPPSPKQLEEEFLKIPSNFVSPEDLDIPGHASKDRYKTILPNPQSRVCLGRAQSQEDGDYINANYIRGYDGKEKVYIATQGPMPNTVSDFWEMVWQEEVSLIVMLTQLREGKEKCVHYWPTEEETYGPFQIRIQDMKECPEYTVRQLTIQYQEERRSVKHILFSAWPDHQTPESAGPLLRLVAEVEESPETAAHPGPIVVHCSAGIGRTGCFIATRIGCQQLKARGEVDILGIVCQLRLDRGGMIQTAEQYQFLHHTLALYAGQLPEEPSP

Cannabinoid receptor 1 [3] = target: T3, Cannabinoid receptor 1 (Homo sapiens, UniProt P21554); experiment: SAR analysis of antagonists of the Cannabinoid Receptor 1 using an Image-Based Assay - Set 3. [Related pubchem assays (depositor defined):AID1961, AID1965]; type: functional
T3 sequence (P21554 whole entry): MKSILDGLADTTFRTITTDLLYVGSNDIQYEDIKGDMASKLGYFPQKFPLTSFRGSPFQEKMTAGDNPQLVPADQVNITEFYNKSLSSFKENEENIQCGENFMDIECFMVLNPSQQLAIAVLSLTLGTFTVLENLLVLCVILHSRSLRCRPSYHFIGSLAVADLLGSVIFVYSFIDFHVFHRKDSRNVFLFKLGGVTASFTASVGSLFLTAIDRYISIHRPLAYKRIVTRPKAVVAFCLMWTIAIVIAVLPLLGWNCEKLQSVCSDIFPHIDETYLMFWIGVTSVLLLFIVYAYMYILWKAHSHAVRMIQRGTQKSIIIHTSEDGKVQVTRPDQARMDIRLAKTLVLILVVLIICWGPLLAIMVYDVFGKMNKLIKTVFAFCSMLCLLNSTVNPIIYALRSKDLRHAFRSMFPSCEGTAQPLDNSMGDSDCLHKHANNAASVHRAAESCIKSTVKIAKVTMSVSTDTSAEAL

Cannabinoid receptor 2 [4] = target: T4, Cannabinoid receptor 2 (Homo sapiens, UniProt P34972); experiment: SAR analysis of agonists of the Cannabinoid Receptor 2 using an Image-Based Assay - Set 2. [Related pubchem assays (depositor defined):AID1961, AID1965]; type: functional
T4 sequence (P34972 whole entry): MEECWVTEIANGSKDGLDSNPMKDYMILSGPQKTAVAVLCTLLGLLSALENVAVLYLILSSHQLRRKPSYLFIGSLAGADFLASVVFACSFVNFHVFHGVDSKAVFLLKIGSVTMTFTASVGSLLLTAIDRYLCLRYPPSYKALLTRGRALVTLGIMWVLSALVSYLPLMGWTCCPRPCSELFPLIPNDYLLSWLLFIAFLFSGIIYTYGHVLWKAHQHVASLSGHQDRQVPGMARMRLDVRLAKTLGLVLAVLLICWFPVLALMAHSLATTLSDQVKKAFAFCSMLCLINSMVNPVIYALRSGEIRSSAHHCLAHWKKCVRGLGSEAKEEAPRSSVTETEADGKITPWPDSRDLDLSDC

[5] = target: T5, G-protein coupled receptor 35 (Homo sapiens, UniProt Q9HC97); experiment: SAR analysis of Antagonists of the GPR35 Receptor using an Image-Based Assay - Set 4. [Related pubchem assays (depositor defined):[…]]; type: functional
T5 sequence (Q9HC97 whole entry): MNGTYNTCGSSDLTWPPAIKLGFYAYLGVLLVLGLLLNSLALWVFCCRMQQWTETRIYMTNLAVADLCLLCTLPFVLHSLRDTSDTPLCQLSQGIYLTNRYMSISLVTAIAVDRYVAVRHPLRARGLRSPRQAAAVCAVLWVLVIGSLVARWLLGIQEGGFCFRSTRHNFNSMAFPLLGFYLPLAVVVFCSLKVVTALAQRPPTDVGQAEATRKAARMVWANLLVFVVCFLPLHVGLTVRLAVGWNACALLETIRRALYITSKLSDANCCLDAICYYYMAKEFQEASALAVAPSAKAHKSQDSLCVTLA

Cannabinoid receptor 2 [6] = target: T4, Cannabinoid receptor 2; experiment: SAR analysis of antagonists of the Cannabinoid Receptor 2 using an Image-Based Assay - Set 2. [Related pubchem assays (depositor defined):AID1961, AID1965]; type: functional
[7] = target: T5, G-protein coupled receptor 35; experiment: SAR analysis of Agonists of the GPR35 Receptor using an Image-Based Assay - Set 3. [Related pubchem assays (depositor defined):AID1961, AID1965]; type: functional
Cannabinoid receptor 1 [8] = target: T3, Cannabinoid receptor 1; experiment: SAR analysis of agonists of the Cannabinoid Receptor 1 using an Image-Based Assay - Set 3. [Related pubchem assays (depositor defined):AID1961, AID1965]; type: functional
[9] = target: T6, G-protein coupled receptor 55 (Homo sapiens, UniProt Q9Y2T6); experiment: SAR analysis of selective Agonists of GPR55 using an Image-Based Assay - Set 2. [Related pubchem assays (depositor defined):AID1961, AID1965]; type: functional
T6 sequence (Q9Y2T6 whole entry): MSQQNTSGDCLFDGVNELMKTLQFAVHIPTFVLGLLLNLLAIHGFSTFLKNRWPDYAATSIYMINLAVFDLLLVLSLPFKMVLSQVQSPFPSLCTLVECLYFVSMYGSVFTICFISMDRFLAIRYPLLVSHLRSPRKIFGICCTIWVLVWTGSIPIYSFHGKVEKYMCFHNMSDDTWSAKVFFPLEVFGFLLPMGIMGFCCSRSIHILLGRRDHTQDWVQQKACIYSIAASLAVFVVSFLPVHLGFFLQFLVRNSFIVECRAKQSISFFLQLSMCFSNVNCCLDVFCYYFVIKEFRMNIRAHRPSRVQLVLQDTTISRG

Troponin, cardiac muscle = Troponin, cardiac muscle (Homo sapiens, UniProt P19429+P45379+P63316); experiment: Fluorescence-based biochemical high throughput dose response assay for activators of the calcium sensitivity of cardiac Regulated Thin Filaments (RTF). [Related pubchem assays (depositor defined):AID493008, AID493018, AID504382, AID504383]; type: protein-complex assay
[10] = target: Type-1 angiotensin II receptor (Homo sapiens, UniProt P30556); experiment: AT1 receptor agonists, dose response, selectivity assay for APJ receptor agonist project, cell-based, uHTS hits (AID 488865); type: functional;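 further: beta-arrestin recruitment to AT1 measured by enzyme fragment complementation luminescence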
Sequence of Type-1 angiotensin II receptor (P30556 whole entry, the tested form may be a part): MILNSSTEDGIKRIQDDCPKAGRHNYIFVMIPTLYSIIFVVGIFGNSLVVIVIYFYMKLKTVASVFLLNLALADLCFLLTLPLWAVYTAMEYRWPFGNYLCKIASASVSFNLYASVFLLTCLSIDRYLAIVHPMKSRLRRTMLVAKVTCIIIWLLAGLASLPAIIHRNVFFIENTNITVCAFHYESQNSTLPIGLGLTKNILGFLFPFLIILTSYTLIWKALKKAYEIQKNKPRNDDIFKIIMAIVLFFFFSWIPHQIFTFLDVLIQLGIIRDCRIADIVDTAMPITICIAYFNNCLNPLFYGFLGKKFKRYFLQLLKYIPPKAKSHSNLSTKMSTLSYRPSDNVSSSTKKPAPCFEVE

[11] = target: T6, G-protein coupled receptor 55; experiment: GPR55 antagonists blocking LPI-driven arrestin recruitment, primary screen, imaging, U2OS, beta-arrestin-GFP, LPI agonist (AID 2013); type: functional;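 further: antagonist potency measured as reduced agonist-driven arrestin aggregation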
Streptokinase A = target: T7, Streptokinase A (Streptococcus pyogenes serotype M1, UniProt P10520); experiment: S. pyogenes streptokinase expression inhibitors, potency, dose response, plasminogen activation absorbance, OD405 (AID 1914); type: functional, Streptococcus pyogenes M1 GAS;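 further: secreted streptokinase activity via plasminogen activation per viability signal from cell pellet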
T7 sequence (P10520 whole entry): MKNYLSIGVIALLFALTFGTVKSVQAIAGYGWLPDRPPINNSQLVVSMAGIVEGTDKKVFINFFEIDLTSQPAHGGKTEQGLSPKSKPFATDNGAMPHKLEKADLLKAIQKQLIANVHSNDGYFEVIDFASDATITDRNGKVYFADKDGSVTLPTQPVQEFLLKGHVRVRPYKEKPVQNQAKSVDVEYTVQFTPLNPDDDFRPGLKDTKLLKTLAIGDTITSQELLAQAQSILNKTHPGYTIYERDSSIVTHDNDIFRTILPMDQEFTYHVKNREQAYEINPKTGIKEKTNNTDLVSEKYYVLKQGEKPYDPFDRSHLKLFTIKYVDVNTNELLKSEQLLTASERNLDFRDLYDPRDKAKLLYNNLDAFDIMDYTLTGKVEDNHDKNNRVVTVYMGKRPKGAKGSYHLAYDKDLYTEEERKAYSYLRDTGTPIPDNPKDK

[12] = tested on: Streptococcus sp. 'group A'; experiment: growth inhibition of control SK(-) GAS strain, dose response, counter-screen for streptokinase expression inhibitor project, luminescence, kanamycin, BacTiterGlo, confirmation (AID 1900); type: functional, organism-based; details: Streptococcus sp. 'group A'
Streptococcus = experiment: Group A Streptococcus viability loss, dose response, counter-screen for streptokinase expression inhibitor project, luminescence, BacTiterGlo (AID 1915); type: functional, organism-based; details: Streptococcus;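 further: potency for reduction of bacterial viability or growth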

For `CC1=CC(=NOC(=O)c2cccc([N+](=O)[O-])c2)C=C(C)C1=O`, the IC50 (Coagulation factor XII) was 1.94 µM (active).

`COc1ccc(N2CCN(C(=O)Nc3ccc(S(N)(=O)=O)cc3)CC2)cc1` was tested, and the IC50 [1] was > 100 µM (inactive) and the IC50 [2] was 51 µM (active).

For `Cc1cccc(N2CCN(C(=O)c3cc(S(=O)(=O)N(C)C)ccc3Cl)CC2)c1C`, the IC50 (Cannabinoid receptor 1 [3]) was 15.6 µM (inactive), the EC50 (Cannabinoid receptor 2 [4]) was > 32 µM (inactive) and the IC50 [5] was > 32 µM (inactive). For the same compound, the IC50 (Cannabinoid receptor 2 [6]) was > 32 µM (inactive), the EC50 [7] was > 32 µM (inactive) and the EC50 (Cannabinoid receptor 1 [8]) was > 32 µM (inactive). The EC50 [9] was 1.53 µM (active).

`CC1=CC(=C(C#N)C#N)C=C(C)N1Cc1ccc(Cl)cc1` was tested, and the EC50 (Troponin, cardiac muscle) was > 71.5 µM (inactive).

`CCCCC1=CC2=CC(=O)C(C)(OC(=O)CC)C(=O)C2=CN1C1CCCCC1` (stereo unspecified) was tested, and the EC50 [10] was > 100 µM (inactive).

`c1ccc2c(-c3c[nH]c4ccccc34)c3ccccc3nc2c1` was tested, and the IC50 [11] was 4.83 µM (active), the EC50 (Streptokinase A) was > 150 µM (not active) and the EC50 [12] was 8.94 µM (active). The EC50 (Streptococcus) was 15.8 µM (active).
